The subject of the test is coculture of keratinocytes and of melanocytes. Description: depigmenting activity test: inhibition of melanogenesis on a coculture of keratinocytes and of melanocytes. The class given is cell-based. The conditions noted are these: for Category (maximum depigmenting activity): inhibition of melanogenesis with respect to the control; for pIC50: coculture of keratinocytes and melanocytes, read-out: IC50 (concentration at which 50% inhibition of melanogenesis is observed). The method, then: This test corresponds to that described in Patent FR 2,734,825, filed by the Applicant Company, and in the article by R. Schmidt, P. Krien and M. Régnier, Anal. Biochem., 235(2), 113-18 (1996). This test is thus carried out on a coculture of keratinocytes and of melanocytes.
The IC50 value, which corresponds to the micromolar concentration (μM) at which 50% inhibition of melanogenesis is observed, is determined for each compound tested.
Furthermore, a category is given to each of these compounds for their maximum depigmenting activity:
category 1: 10 to 30% inhibition of melanogenesis with respect to the control (same experiment without compound to be tested);
category 2: 30 to 60% inhibition of melanogenesis with respect to the control (same experiment without compound to be tested);
category 3: 60 to 100% inhibition of melanogenesis with respect to the control (same experiment without compound to be tested).

The text below walks through data of US6514486B1, “Composition for topical application comprising at least one iminophenol compound” (L'Oreal, priority 1997, dated 2003).

SMILES strings stand for the structures. pIC50: −log10 of the molar value.

For `O=c1cc(CO)occ1O` [Kojic acid], the pIC50 was 3.30. Moreover, under “at 500 μM”, the “Category (maximum depigmenting activity)” value was 2 at 500 μM (category 2: 30 to 60% inhibition of melanogenesis with respect to the control).

Consider `CN(C)C=Nc1ccc(O)cc1` [N′-(4-hydroxyphenyl)-N,N-dimethylformamidine], for which the pIC50 is 3.70. For the same compound, for the setting “at 50 μM”, the “Category (maximum depigmenting activity)” value was 2 at 50 μM (category 2: 30 to 60% inhibition of melanogenesis with respect to the control).
